Data set [1] has as its target COX-2 (Mus musculus (Mouse), UniProt Q05769). Kind of data set: COX-2 expression in LPS-treated BV2 microglial cells, western blotting. Type of data set: cell-based. The note with it: LPS-stimulated BV2 cells. The procedure:
(§1) Cells were then incubated for different times at 37° C. with LPS, as pro-inflammatory stimulus. Experiments included cells grown in medium alone (control).
(§2) The tissue and cell culture lysates were vortexed for 15-20 s and, then, centrifuged at 12,800×g for 20 min. The protein concentration in the supernatant was spectrophotometrically determined by Bradford's protein assay (Bradford, 1976). Protein samples were diluted with sample buffer (0.5 M Tris-HCl pH=6.8, 10% glycerol, 10% (w/v) SDS, 5% 2-mercaptoethanol, 0.05% (w/v) bromophenol blue) and then boiled for 3 min. Proteins (25 μg/lane) and prestained standards (BioRad Laboratories, Hercules, CA, USA) were loaded on 7% or 12% SDS precast polyacrylamide gels (BioRad Laboratories).
After electrophoresis, the resolved proteins were transferred from the gel to nitrocellulose membranes. A blotting buffer [20 mMTris/150 mM glycine, pH=8.0, 20% (v/v) methanol] was used for gel and membrane saturation and blotting. […]
A general note: Immunoblotting shows a protein as a band on a membrane.

Data set [2] relates to PGE2. As to the kind of experiment: PGE2 release in LPS-stimulated BV2 microglial cells, competitive binding immunoassay. To be noted: for PGE2 release (ng/ml) at 48 h: LPS-stimulated BV2 cells; for PGE2 production reduction: LPS-treated BV2 cells. It counts as cell-based. The procedure:
Microglial cells were cultured in 6-well plates at a density of 3×10^6 cells/well. […] The cultures were maintained at 37° C. for 24 and 48 h in a humidified air containing a 5% CO2. PGE2 levels were determined in the supernatant using a competitive binding immunoassay (Cayman Chemical, Ann Arbor, MI, USA) following the manufacturer's instructions. Unstimulated cells were included as a control. PGE2 amount determination in the brain was performed in the tissue extracts, according to the manufacturer's instructions. The optical density was measured at λ=405-420 nm with precision microplate reader and the amount of PGE2 (ng/mL) was calculated using a PGE2 standard curve.

In data set [3] the target is COX-1 (Mus musculus (Mouse), UniProt P22437). Kind of data set: COX-1 expression in LPS-treated BV2 microglial cells, western blotting. It counts as cell-based. The note with it: for COX-1 expression reduction: LPS-activated BV2 cells. The procedure: as §1, §2
After electrophoresis, the resolved proteins were transferred from the gel to nitrocellulose membranes. A blotting buffer [20 mMTris/150 mM glycine, pH=8.0, 20% (v/v) methanol] was used for gel and membrane saturation and blotting. Then, membranes were incubated in the dark with 1 μg/mL mouse monoclonal antibody (MoAb) anti-COX-1 and rabbit polyclonal Ab anti-COX-2 (1:1000) (both from AbCam, Cambridge, UK), rabbit polyclonal Ab anti p-IkB-α (1:200), mouse polyclonal Ab anti β-actin (1:500) (all from Santa Cruz Biotechnology), mouse MoAb anti-glial fibrillary acidic protein (GFAP) (1:200) and mouse mAb anti-ionized calcium-binding adapter molecule-1 (Iba-1) (1:200) (both from Merck Millipore) overnight at 4° C. The membranes were washed with 0.1% Tween 20-PBS (for 20 min, 3 times) and then incubated with the secondary antibody diluted 1:2000 for 60 min. Bands were visualized by chemiluminescence detection (Invitrogen, Milan, Italy). The β-actin level was used as a protein loading control. For tissue analysis, obtained bands were normalized to the level of β-actin performed for each cerebral area tested. For cell cultures the bands were normalized to the β-actin level in each experimental condition.

Data set [4] has as its system BV2 microglial cells. Kind of data set: BV2 microglial cell viability, MTT reduction assay. Type of data set: cell-based. To be noted: 24 h, P6 0.5 and 1 μM, mofezolac 0.1 and 0.5 μM, alone or with LPS. The method, then: as §1
Cell viability of microglial cells was quantified using the MTT reduction assay. The cells (8×10^3/well) were grown in 96-well plates (Becton Dickinson Labware) in complete medium and treated with different concentration of COX inhibitors, in presence or absence of LPS. Untreated cells were used as a control. A PBS 1× solution of MTT (5 mg/mL) was prepared and added to the cell medium at a final concentration of 0.5 mg/mL. Cells were incubated for 4 h at 37° C. and 5% CO2 to allow the MTT metabolism. The formazan crystals formed (from MTT) into the cells were solubilized with DMSO (Sigma-Aldrich). The levels of MTT formazan were determined measuring the optical density at λ=560 nm and subtracting the background (λ=670 nm) with a Victor Multiplate Reader (Wallac). Optical density was directly correlated to cell quantity.
(In general: Tetrazolium assays rely on reduction of a dye to a coloured formazan, in cell work by metabolically active cells.)

Data set [5] can be described thus: GALMOF0 chemical stability in buffers by HPLC. Type of data set: physicochemical. To be noted: pH 1, 3, 7.3 and 8, 37° C., till 60 min. The method, then: HPLC analyses were performed to determine the chemical stability and the purity grade of GALMOF0 as a representative compound of the set.
Aminica column was used, CH3CN/10 mM Tris-HCl (pH=8) (15:85) was used as mobile phase, T=40° C.; λ=254 nm.
200 μL of 2.5 mg/mL di GALMOF0 in CH3CN were added to 1800 μL of a buffer (pH=1, 3, 7.3 and 8). Each sample was kept stirred at 37° C. Buffer with pH=1 and 3, obtained with 0.1N HCl and 50 mM HEPES, was selected to simulate the chemical stability at gastric level, whereas pH=7.3 and 8, obtained by 50 mM TRIS-HCl, simulated its stability in the blood and gut, respectively.
At 15, 30, 60 min and 48 h, 300 μL of the sample were withdraw, diluted with 300 μL of CH3CN (final concentration=[…]) and tested by HPLC.

In data set [6] the test system is GLUT-1. Kind of data set: Caco-2 monolayer efflux assay, Apparent Permeability (Papp), with or without GLUT-1 inhibitor phloretin. Type of data set: in vitro ADME, Human. The note with it: human. The procedure:
(§3) In a monolayer efflux assay, the Apparent Permeability (Papp) in both basolateral to apical [Papp(B→A)] and apical to basolateral [Papp(A→B)] directions was determined for each compound (FIG. 2). Human colonic adenocarcinoma cell line (Caco-2) presents a facilitated transport system at the apical and basolateral surface. Caco-2 cells express high levels of GLUT-1 that are localized to the basolateral membrane and transport glucose to the serosal side.
(§4) The Papp(B→A) flux of each compound alone or in the presence of phloretin, a GLUT-1 inhibitor, has been determined. Since GLUT-1 is express in the basolateral compartment a high B→A flux means that the transport is GLUT-1 mediated because B→A flux represents the active transport.
(§5) A→B flux, which represents the passive transport, has also been determined for each compound (Table 2).

The test system of data set [7] is Caco-2 cells. The data set is described as above. Type of data set: in vitro ADME, Human. The method, then: as §3, §4, §5
Data set [8] can be described thus: GALMOF0 metabolic stability, incubation with rat liver microsomes. Type of data set: in vitro ADME. The method, then:
GALMOF0 metabolic stability was determined through its incubation with rat liver microsomes and monitoring the disappearance of its chromatogram peak within 30 min.
The in vitro test was carried out in the presence of rat liver S9 fraction (Tebu-bio, Milan, Italy).
Briefly, GALMOF0 (10 μM) in 100 mM of phosphate buffer (pH=7.4) was mixed with the NADPH regeneration system to a final concentration of 1.3 mM NADP^+, 3.3 mM glucose 6-phosphate and 0.4 U/ml glucose 6-phosphate dihydrogenase and 3.3 mM MgCl2. The experiment started with the addition of rat microsomes (1 mg/ml) that were incubated for 30 min at 37° C. The reaction was blocked by adding an equal volume of cold CH3CN. The samples were centrifuged at 4,600 rpm for 15 min at 4° C. The supernatant was separated and the organic phase analysed by HPLC in the same conditions used for the samples of the “chemical stability study”.
The residual GALMOF0 percentage after 30 min was calculated according the following equation: Residual GALMOF0(%) at 30 min=Cmicr+NADPH/Cmicr×100 where Cmicr+NADPH is the GALMOF0 concentration after the incubation with the microsomes and the NADPH regeneration system (FIG. 8); Cmicr is the GALMOF0 concentration after the incubation with only the microsomes (FIG. 9).
(Microsomes from liver hold many membrane-bound enzymes, among them those of drug oxidation.)

Data set [9] deals with COX-2 (Homo sapiens, UniProt P35354). Kind of data set: colorimetric COX Inhibitor screening Assay (peroxidase component, oxidized TMPD at 590 nm). Type of data set: biochemical. The procedure: Human cyclooxygenase inhibitory activity was determined by a colorimetric COX Inhibitor screening Assay which measures the peroxidase component of the cyclooxygenases, monitoring the appearance of oxidized N,N,N′,N′-tetramethyl-p-phenylenediamine (TMPD) at 590 nm.

pIC50: −log10 of the molar value. Where two headings read alike, the source gives them in different places.

The values that follow come from US12011433B2 (UNIVERSITÁ DEGLI STUDI DI BARI “ALDO MORO”, priority 2016, dated 2024).

In general, Papp A→B refers to the apparent permeability from the apical to the basolateral side of a cell layer. Broadly, the Papp B→A is how fast a substance crosses the layer from the basolateral side. For orientation: inhibition means the share of the control response that was lost under treatment. The low end stands for a response near the control, the high end for a response far below the control. By pIC50 is commonly meant the IC50 on a negative log10 scale, so that one unit is a factor of ten. Higher therefore signals a low IC50.

COX-2 (Homo sapiens, UniProt P35354), sequence (P35354 18-604 limits assumed): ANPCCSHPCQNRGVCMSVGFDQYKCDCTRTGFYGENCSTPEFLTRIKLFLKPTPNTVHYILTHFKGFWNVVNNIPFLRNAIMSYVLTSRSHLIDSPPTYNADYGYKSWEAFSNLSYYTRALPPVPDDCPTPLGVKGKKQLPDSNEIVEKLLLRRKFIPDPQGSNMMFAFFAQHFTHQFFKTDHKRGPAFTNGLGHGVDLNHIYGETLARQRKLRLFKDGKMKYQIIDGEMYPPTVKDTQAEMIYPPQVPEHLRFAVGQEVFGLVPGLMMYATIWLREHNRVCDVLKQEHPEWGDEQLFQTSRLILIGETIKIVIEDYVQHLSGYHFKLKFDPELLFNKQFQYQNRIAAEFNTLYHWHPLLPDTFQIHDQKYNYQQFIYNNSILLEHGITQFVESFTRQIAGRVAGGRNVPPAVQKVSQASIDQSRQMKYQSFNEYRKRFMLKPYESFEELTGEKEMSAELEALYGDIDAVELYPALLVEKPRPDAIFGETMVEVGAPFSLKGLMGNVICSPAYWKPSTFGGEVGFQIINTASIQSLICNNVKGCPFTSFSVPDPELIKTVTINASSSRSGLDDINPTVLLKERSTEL

On to `Cc1onc(-c2ccc(Cl)o2)c1-c1ccccc1` [Compound P6, 3-(5-chlorofuran-2-yl)-5-methyl-4-phenylisoxazole], for which, in data set [1], the COX-2 protein levels result is “unaffected”. For the same compound, the “PGE2 release (ng/ml) at 48 h” value in data set [2] (0.5 μM inhibitor + LPS) stood at 0.21 ng/mL; in data set [2] (1 μM inhibitor + LPS), 0.12 ng/mL. Also, the PGE2 production reduction in data set [2] (at 0.5 μM as printed in the text) amounted to 78%; in data set [2] (at 1 μM as printed in the text), 88%. The COX-1 expression levels result in data set [3] (BV2 cells, 48 h of incubation with LPS, 1 h pre-treated) is “significantly reduced”. The COX-1 expression reduction in [3] (0.5 μM) amounted to 67%; in [3] (1.0 μM) it was 79%. The cell toxicity entry in [4] is “No cell toxicity”.
Regarding `COc1ccc(-c2noc(CC(=O)OCC3OC(O)C(O)C(O)C3O)c2-c2ccc(OC)cc2)cc1` [GALMOF0, ((2S,3R,4S,6R)-3,4,5,6-tetrahydroxytetrahydro-2H-pyrano-2-yl-) methyl-(2-(3,4-di(4-metoxyphenyl)isoxazol-5-yl)acetate], the “chemical stability, chromatogram profile” value in data set [5] was “no variation of the chromatogram profile was observed”. Besides, the Papp A→B is 38 ×10⁻⁶ cm/s in data set [6] (compound alone, read-out: Papp A → B) and 36.8 ×10⁻⁶ cm/s in data set [6] (with phloretin (GLUT-1 inhibitor), in Phloretin, read-out: Papp A → B, Phloretin). Further, the Papp B→A in data set [6] (compound alone, read-out: Papp B → A) came to 87.5 ×10⁻⁶ cm/s; in data set [6] (with phloretin (GLUT-1 inhibitor), in Phloretin, read-out: Papp B → A, Phloretin), 61 ×10⁻⁶ cm/s. In data set [7] (in the presence of 100 mM Phloretin), the “Papp B → A, Phloretin” value was 61 ×10⁻⁶ cm/s. Moreover, the “reduction of the basolateral to apical flux (Papp B→A) in the presence of phloretin” value in [7] (phloretin vs alone) amounted to 30%. Moreover, the “Cmicr, concentration after the incubation” value in data set [8] (incubated with only the microsomes, 30 min) was found to be 70.51 mAU*s. Moreover, the “Cmicr+NADPH, concentration after the incubation” value in data set [8] (incubated with the microsomes and the NADPH regeneration system, 30 min) worked out at 68.02 mAU*s. Also, in data set [8] (rat liver microsomes 1 mg/ml, NADPH regeneration system, 10 μM, 37° C.), the “residual GALMOF0 after 30 min of treatment with microsomes” value was 96%. This compound came in with an inhibition at 50 µM in [9] (at 50 μM, the highest concentration tested) of 87%. In [9] (human cyclooxygenase), the pIC50 was 5.51.
